In patent publication US6924251B1, “Substituted benzoylcyclohexandiones” (Bayer Aktiengesellschaft, priority 1998, dated 2005):

Key:
weeds [1] = experiment: Post-emergence test, activity against weeds; assay type: in vivo
Method: (§1) • Solvent: 5 parts by weight of acetone • Emulsifier: 1 part by weight of alkylaryl polyglycol ether
(§2) To produce a suitable preparation of active compound, 1 part by weight of active compound is mixed with the stated amount of solvent, the stated amount of emulsifier is added and the concentrate is diluted with water to the desired concentration.
(§3) Test plants which have a height of 5-15 cm are sprayed with the preparation of active compound in such a way that the particular amounts of active compound desired are applied per unit area. The concentration of the spray liquor is chosen so that the particular amounts of active compound desired are applied in 1000 1 of water/ha.
(§4) After three weeks, the degree of damage to the plants is assesssed in % damage in comparison to the development of the untreated control.

Sinapis = experiment: Post emergence test/greenhouse; assay type: in vivo; details: after three weeks
Method: as §1, §2, §3, §4

Maize [2] = experiment: Post emergence test/greenhouse; assay type: in vivo; details: after three weeks
Method: as §1, §2, §3, §4

Amaranthus = experiment: Post emergence test/greenhouse; assay type: in vivo; details: after three weeks
Method: as §1, §2, §3, §4

weeds [3] = experiment: Pre-emergence test, activity against weeds; assay type: in vivo
Method: as §1, §2
(§5) Seeds of the test plants are sown in normal soil. After approximately 24 hours, the soil is sprayed with the preparation of active compound such that the particular amount of active compound desired is applied per unit area. The concentration of the spray liquor is chosen so that the particular amount of active compound desired is applied in 1000 liters of water per hectare.
as §4

Abutilon = experiment: Pre-emergence test/greenhouse; assay type: in vivo; details: after three weeks
Method: as §1, §2, §5, §4

Cyperus = experiment: Pre-emergence test/greenhouse; assay type: in vivo; details: after three weeks
Method: as §1, §2, §5, §4

[4] = logP determination by HPLC (reversed-phase C18), EEC Directive 79/831 Annex V.A8; details: reversed-phase C18 HPLC column
Maize [5] = experiment: Pre-emergence test/greenhouse; assay type: in vivo; details: 500 g ai./ha, after three weeks
Method: as §1, §2, §5, §4

Row | SMILES | activity against weeds (weeds [1]) | % damage Sinapis (Sinapis; 1000 g ai./ha) [%] | % damage Maize (Maize [2]; 1000 g ai./ha) [%] | % damage Amaranthus (Amaranthus; 1000 g ai./ha) [%] | activity against weeds (weeds [3]) | % damage Abutilon (Abutilon; 1000 g ai./ha) [%] | % damage Cyperus (Cyperus; 1000 g ai./ha) [%] | chromatographic logP ([4]; pH 2) | % damage Abutilon (Abutilon; 500 g ai./ha) [%] | % damage Cyperus (Cyperus; 500 g ai./ha) [%] | % damage Maize (Maize [5]) [%] | % damage Sinapis (Sinapis; 500 g ai./ha) [%] | % damage Maize (Maize [2]; 500 g ai./ha) [%] | % damage Amaranthus (Amaranthus; 500 g ai./ha) [%] | chromatographic logP [4]
1 | CCOc1nn(Cc2cc(Br)ccc2C(=O)C2C(=O)CCCC2=O)c(=O)n1C [compound 15] | strong activity | 80 | 0 | 90 |  |  |  |  |  |  |  |  |  |  | 
2 | CCOc1nn(Cc2cc(C(F)(F)F)ccc2C(=O)C2C(=O)CCCC2=O)c(=O)n1C [compound 1, 5-ethoxy-4-methyl-2-[2-(2,6-dioxo-cyclohexyl-carbonyl)-5-trifluoromethyl-benzyl]-2,4-dihydro-3H-1,2,4-triazol-3-one] |  |  |  |  | strong activity | 100 | 100 | 2.7 |  |  |  |  |  |  | 
3 | CCOn1c(CC)nn(Cc2cc(Br)ccc2C(=O)C2C(=O)CCCC2=O)c1=O [compound 10] | strong activity |  |  |  | strong activity |  |  |  | 90 | 100 | 0 | 80 | 20 | 95 | 2.68
